Our source for the IC50 values is ChEMBL document CHEMBL1132685, “Nonpeptide glycoprotein IIB/IIIA inhibitors. 19. A new design paradigm employing linearly minimized, centrally constrained, exosite inhibitors” (Bioorg Med Chem Lett, 1999).

Molecules are shown by their SMILES.

For the experiment, the target named is Integrin alpha-IIb/beta-3 (Homo sapiens, UniProt P05106+P08514). As to the kind of experiment: Inhibition of glycoprotein IIb/III integrin mediated fibrinogen binding to activated platelets. The class given is functional.
Integrin alpha-IIb/beta-3, sequence (P05106 27-788 limits assumed): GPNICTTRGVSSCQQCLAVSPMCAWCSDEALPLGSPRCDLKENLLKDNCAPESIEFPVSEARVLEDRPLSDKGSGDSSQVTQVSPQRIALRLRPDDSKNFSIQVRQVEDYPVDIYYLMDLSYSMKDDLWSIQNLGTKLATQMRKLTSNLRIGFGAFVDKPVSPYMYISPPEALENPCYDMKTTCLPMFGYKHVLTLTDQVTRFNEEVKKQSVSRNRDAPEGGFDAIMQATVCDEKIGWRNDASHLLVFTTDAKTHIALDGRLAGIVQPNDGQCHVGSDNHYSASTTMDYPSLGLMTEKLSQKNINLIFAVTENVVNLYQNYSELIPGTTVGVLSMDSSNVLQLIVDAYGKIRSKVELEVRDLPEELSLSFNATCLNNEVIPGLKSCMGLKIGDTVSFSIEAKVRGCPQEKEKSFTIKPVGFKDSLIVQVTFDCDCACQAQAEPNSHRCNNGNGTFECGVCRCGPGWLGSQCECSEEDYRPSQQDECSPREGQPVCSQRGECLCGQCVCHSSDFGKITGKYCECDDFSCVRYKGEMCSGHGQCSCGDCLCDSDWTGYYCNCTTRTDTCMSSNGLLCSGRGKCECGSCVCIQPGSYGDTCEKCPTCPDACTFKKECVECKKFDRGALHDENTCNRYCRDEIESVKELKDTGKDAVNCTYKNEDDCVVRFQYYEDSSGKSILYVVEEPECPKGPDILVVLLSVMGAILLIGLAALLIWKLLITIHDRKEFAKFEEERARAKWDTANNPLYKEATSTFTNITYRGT
Integrin alpha-IIb/beta-3, sequence (P08514 32-887 limits assumed): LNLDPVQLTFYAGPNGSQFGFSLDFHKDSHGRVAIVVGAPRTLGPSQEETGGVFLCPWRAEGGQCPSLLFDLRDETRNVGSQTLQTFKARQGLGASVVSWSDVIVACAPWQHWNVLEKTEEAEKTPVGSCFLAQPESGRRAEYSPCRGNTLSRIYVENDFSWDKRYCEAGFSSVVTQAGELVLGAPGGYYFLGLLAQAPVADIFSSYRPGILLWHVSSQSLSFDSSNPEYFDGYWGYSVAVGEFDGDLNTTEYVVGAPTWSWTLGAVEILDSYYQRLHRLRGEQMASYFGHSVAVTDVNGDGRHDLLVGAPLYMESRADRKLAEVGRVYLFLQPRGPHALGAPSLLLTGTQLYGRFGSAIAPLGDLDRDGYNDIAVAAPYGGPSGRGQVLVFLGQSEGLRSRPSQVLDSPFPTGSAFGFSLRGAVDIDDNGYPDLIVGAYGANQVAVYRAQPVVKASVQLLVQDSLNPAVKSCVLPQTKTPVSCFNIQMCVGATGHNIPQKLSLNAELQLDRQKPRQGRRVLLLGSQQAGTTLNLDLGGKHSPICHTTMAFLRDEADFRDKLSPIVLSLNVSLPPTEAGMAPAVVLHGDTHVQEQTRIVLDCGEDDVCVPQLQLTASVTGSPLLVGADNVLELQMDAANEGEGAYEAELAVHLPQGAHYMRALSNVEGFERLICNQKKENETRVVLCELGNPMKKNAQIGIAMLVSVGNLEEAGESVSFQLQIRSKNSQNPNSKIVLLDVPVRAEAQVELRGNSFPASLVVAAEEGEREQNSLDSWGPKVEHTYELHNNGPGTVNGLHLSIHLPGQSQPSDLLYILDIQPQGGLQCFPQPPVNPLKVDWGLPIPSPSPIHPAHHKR
Integrin alpha-IIb/beta-3, sequence (P08514 891-1039 limits assumed): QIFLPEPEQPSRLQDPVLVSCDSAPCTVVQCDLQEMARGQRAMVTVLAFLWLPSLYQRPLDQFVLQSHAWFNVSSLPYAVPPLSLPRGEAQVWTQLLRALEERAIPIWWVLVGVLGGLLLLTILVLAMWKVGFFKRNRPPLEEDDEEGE

`O=C(NC[C@H](NS(=O)(=O)c1ccccc1)C(=O)O)c1ccc(CN2CCNCC2)cc1` yielded an IC50 of 0.034 µM.

Compound `NCCCCC(=O)NCC(=O)NC[C@@H](NS(=O)(=O)c1ccccc1)C(=O)O` gave an IC50 of 29 µM.

Take `O=C(O)CCNC(=O)c1ccc(N2CCNCC2)cc1`: the IC50 stood at 230 µM.

Take `NCCOc1ccc(C(=O)NC[C@H](NS(=O)(=O)c2ccccc2)C(=O)O)cc1`: the IC50 is 0.11 µM.

In the case of `NCCCOc1ccc(C(=O)NC[C@H](NS(=O)(=O)c2ccccc2)C(=O)O)cc1`, the IC50 worked out at 0.055 µM.

Regarding `O=C(NC[C@H](NS(=O)(=O)c1ccccc1)C(=O)O)c1ccc(CCC2CCCCN2)cc1` (some centres undefined), the IC50 turned out to be 0.13 µM.

`NCCCCCCC(=O)NCC(=O)NC[C@@H](NS(=O)(=O)c1ccccc1)C(=O)O`: the IC50 worked out at 0.38 µM.

`NCCCCCC(=O)NCC(=O)NC[C@@H](NS(=O)(=O)c1ccccc1)C(=O)O` displayed a 50% inhibitory concentration (IC50) of 2.8 µM.

For `NCCCC(=O)NCC(=O)NC[C@@H](NS(=O)(=O)c1ccccc1)C(=O)O`, the IC50 was above 30 µM.

`NCCc1ccc(C(=O)NC[C@H](NS(=O)(=O)c2ccccc2)C(=O)O)cc1` showed an IC50 of 4.9 µM.

For `NCCOc1cccc(C(=O)NC[C@H](NS(=O)(=O)c2ccccc2)C(=O)O)c1`, the IC50 came to 9.2 µM.

Turning to `NCCCCCOc1ccc(C(=O)NC[C@H](NS(=O)(=O)c2ccccc2)C(=O)O)cc1`, the IC50 came out at 0.013 µM.

The compound `NCCCCOc1ccc(C(=O)NC[C@H](NS(=O)(=O)c2ccccc2)C(=O)O)cc1` displayed an IC50 of 0.023 µM.

For `NCCCc1ccc(C(=O)NC[C@H](NS(=O)(=O)c2ccccc2)C(=O)O)cc1`, the IC50 is 0.27 µM.
